Assay results reported in patent publication US8242274B2, “Triazolopyridine kinase inhibitors useful for the treatment of degenerative and inflammatory diseases” (Galapagos NV, priority 2008, dated 2012).

Key:
MAB model = MAB model (collagen antibody-induced arthritis); assay type: in vivo, mice; conditions: for activity in the MAB model: 30 mg/kg
Description: The MAB model allows a rapid assessment of the modulation of an RA-like inflammatory response by therapeutics ([…]. Nature Protocols (2006) 2512-2516: Collagen antibody-induced arthritis). DBA/J mice were injected i.v. with a cocktail of mAbs directed against collagen II. One day later, compound treatment was initiated (vehicle: 10% (v/v) HPβCD). Three days later, mice received an i.p. LPS injection (50 μg/mouse), resulting in a fast onset of inflammation. Compound treatment was continued until 10 days after the mAb injection. Inflammation was read by measuring paw swelling and recording the clinical score of each paw. The cumulative clinical arthritis score of four limbs was presented to show the severity of inflammation. A scoring system is applied to each limb using a scale of 0-4, with 4 being the most severe inflammation. • 0 Symptom free • 1 Mild, but definite redness and swelling of one type of joint such as the ankle or wrist, or apparent redness and swelling limited to individual digits, regardless of the number of affected digits • 2 Moderate redness and swelling of two or more types of joints • 3 Severe redness and swelling of the entire paw including digits • 4 Maximally inflamed limb with involvement of multiple joints

hERG channels = molecular target: T1, hERG channels (Homo sapiens, UniProt Q12809); assay: hERG patch clamp assay, liability for QT prolongation; assay type: cell-based
T1 construct: expressed in transfected cells
Description: Electrodes were manufactured from GC150TF pipette glass (Harvard), resistance was between 2 and 3 MΩ.
IC50 and IC20 values were calculated for each compound tested. The fold difference between the IC20 and the unbound Cmax concentrations of the test compound obtained at relevant therapeutic doses as determined by results obtained from the rat CIA model was calculated.
For the concentration response curves, peak tail current amplitude was measured during the voltage step to −50 mV.

[1] = test system: pSTAT1(2)-luciferase reporter; assay: JAK-STAT signalling assay (HeLa cells, OSM trigger); assay type: cell-based; conditions: human OSM 33 ng/mL
Description: HeLa cells were maintained in Dulbecco's Modified Eagle's Medium (DMEM) containing 10% heat inactivated fetal calf serum, 100 U/mL penicillin and 100 μg/mL streptomycin. HeLa cells were used at 70% confluence for transfection. 20,000 cells in 87 μL cell culture medium were transiently transfected with 40 ng pSTAT1(2)-luciferase reporter (Panomics), 8 ng of LacZ reporter as internal control reporter and 52 ng of pBSK using 0.32 μL Jet-PEI (Polyplus) as transfection reagent per well in 96-well plate format. After overnight incubation at 37° C., 10% CO2, transfection medium was removed. 75 μL of DMEM+1.5% heat inactivated fetal calf serum was added. 15 μL of compound at 6.7× concentration was added for 60 min and then 10 μL of human OSM (Peprotech) at 33 ng/mL final concentration. […]
40 μL of cell lysate was used to read β-galactosidase activity by adding 180 μL βGal solution (30 μl ONPG 4 mg/mL+150 μL β-Galactosidase buffer (0.06 M Na2HPO4, 0.04 M NaH2PO4, 1 mM MgCl2)) for 20 min. The reaction was stopped by addition of 50 μL Na2CO3 1 M. Absorbance was read at 405 nm.
Luciferase activity was measured using 40 μL cell lysate plus 40 μl of Steadylite® as described by the manufacturer (Perkin Elmer), on the Envision (Perkin Elmer). […]

in vivo = conditions: male, Sprague-Dawley, rat, po
Description: A 7-day oral toxicity study with test compounds was performed in Sprague-Dawley male rats to assess their toxic potential and toxicokinetics, at daily doses of 100, 300 and 500 mg/kg/day, by gavage, at the constant dosage-volume of 5 mL/kg/day.
The test compounds were formulated in 30% (v/v) HPβCD in purified water. Each group included 5 principal male rats as well as 3 satellite animals for toxicokinetics. A fourth group was given 30% (v/v) HPβCD in water only, at the same frequency, dosage volume and by the same route of administration, and acted as the vehicle control group.
Compounds 37 and 176 were tested in this protocol.

TNF release = assay: Septic shock model (LPS); assay type: in vivo, mice; conditions: for reduction in the TNF release: statistically significant
Description: Injection of lipopolysaccharide (LPS) induces a rapid release of soluble tumour necrosis factor (TNF-alpha) into the periphery. This model is used to analyse prospective blockers of TNF release in vivo.
Six BALB/cJ female mice (20 g) per group were treated at the intended dosing once, po. Thirty minutes later, LPS (15 μg/kg; E. Coli serotype 0111:B4) was injected ip. Ninety minutes later, mice were euthanized and blood was collected. Circulating TNF alpha levels were determined using commercially available ELISA kits. Dexamethasone (5 μg/kg) was used as a reference anti-inflammatory compound. Selected compounds are tested at one or multiple doses, e.g. 3 and/or 10 and/or 30 mg/kg, po.

T1 sequence (Q12809 whole entry): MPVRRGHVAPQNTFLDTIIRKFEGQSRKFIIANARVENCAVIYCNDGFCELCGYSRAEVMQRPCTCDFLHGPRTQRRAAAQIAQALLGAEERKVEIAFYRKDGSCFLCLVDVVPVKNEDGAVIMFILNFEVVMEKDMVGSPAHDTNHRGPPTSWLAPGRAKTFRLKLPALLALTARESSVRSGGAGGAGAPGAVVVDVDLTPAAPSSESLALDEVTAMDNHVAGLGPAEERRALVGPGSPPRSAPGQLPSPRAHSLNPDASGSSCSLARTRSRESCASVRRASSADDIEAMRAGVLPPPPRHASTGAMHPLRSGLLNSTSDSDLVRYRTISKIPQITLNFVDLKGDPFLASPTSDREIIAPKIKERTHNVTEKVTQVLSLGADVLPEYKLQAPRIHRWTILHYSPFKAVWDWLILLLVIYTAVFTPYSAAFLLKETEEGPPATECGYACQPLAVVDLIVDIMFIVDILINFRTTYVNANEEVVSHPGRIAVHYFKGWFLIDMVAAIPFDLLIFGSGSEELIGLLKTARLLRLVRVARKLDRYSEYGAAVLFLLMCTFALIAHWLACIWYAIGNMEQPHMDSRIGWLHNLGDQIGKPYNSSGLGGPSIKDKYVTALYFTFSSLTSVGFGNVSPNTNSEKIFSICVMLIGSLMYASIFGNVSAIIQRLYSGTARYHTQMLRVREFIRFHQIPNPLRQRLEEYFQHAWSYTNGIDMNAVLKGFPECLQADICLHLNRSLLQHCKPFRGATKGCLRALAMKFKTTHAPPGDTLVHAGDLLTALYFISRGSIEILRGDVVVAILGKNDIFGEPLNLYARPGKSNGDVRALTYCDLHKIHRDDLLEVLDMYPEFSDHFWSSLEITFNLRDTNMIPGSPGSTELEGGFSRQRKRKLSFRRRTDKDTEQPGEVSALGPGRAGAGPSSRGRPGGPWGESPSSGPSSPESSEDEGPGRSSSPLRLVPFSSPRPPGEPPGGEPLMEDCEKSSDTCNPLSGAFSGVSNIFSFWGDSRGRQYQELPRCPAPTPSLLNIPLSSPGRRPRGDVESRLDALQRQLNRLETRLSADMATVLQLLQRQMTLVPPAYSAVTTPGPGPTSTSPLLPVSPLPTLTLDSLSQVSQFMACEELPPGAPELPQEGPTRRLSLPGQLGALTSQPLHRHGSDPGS

Q: For `N#Cc1ccc(COc2ccc(-c3cccc4nc(NC(=O)C5CC5)nn34)cc2)cn1` [Compound 176, N-(5-(4-((6-cyanopyridin-3-yl)methoxy)phenyl)-[1,2,4]triazolo[1,5-a]pyridin-2-yl)cyclopropanecarboxamide], which “clinical score, MAB model” value (MAB model; 10 mg/kg p.o.) is on record?
A: The value was “reduced the clinical score”.

Q: What about the “inflammation, MAB model” value (MAB model; 10 mg/kg p.o.) of the same molecule?
A: The value was “significantly reduced inflammation”.

Q: And the “clinical score, MAB model” value (MAB model; 30 mg/kg p.o.)?
A: Its value is “reduced the clinical score with statistical significance”.

Q: And the “inflammation, MAB model” value (MAB model; 30 mg/kg p.o.)?
A: The value was “significantly reduced inflammation”.

Q: And the “Fold difference between the hERG IC20 and the unbound Cmax” value (hERG channels; Dose 3 (rat CIA model))?
A: Its value is 137.

Q: What about the “Fold difference between the hERG IC20 and the unbound Cmax” value (hERG channels; Dose 10 (rat CIA model)) of the same molecule?
A: The value was 82.

Q: What about the “potential for QT prolongation” value (hERG channels; compared to Compound 37) of the same molecule?
A: Its value is “much lower potential QT prolongation issue”.

Q: What about the EC50 [1] of the same molecule?
A: The EC50 was 0.001 to 0.1 µM.

Q: What about the NOAEL at 7 day (in vivo) of the same molecule?
A: The NOAEL at 7 day was 500 mg/kg.

Q: What about the “reduction in the TNF release” value (TNF release; 3 mg/kg po) of the same molecule?
A: The value was greater than 50%.

Q: What about the “reduction in the TNF release” value (TNF release; 10 mg/kg po) of the same molecule?
A: Its value is greater than 50%.

Q: For `CC(=O)Nc1ccc(COc2ccc(-c3cccc4nc(NC(=O)C5CC5)nn34)cc2)cc1` [Compound 92, N-(5-(4-(4-acetamidobenzyloxy)phenyl)-[1,2,4]triazolo[1,5-a]pyridin-2-yl)cyclopropanecarboxamide], which EC50 [1] is on record?
A: Its EC50 is greater than 1 µM.

Q: What does the source list for `O=C(Nc1nc2cccc(-c3ccc(OCc4cccnc4)cc3)n2n1)C1CC1` [Compound 36, N-(5-(4-(pyridin-3-ylmethoxy)phenyl)-[1,2,4]triazolo[1,5-a]pyridin-2-yl)cyclopropanecarboxamide]?
A: activity in the MAB model (MAB model): active; activity in the septic shock model (TNF release; 30 mg/kg): active

Q: Which “activity in the MAB model” value (MAB model) does the source give for `O=C(Nc1nc2cccc(-c3ccc(OCc4ccccn4)cc3)n2n1)C1CC1` [Compound 37, N-(5-(4-(pyridin-2-ylmethoxy)phenyl)-[1,2,4]triazolo[1,5-a]pyridin-2-yl)cyclopropanecarboxamide] here?
A: The value was “active”.

Q: What about the “Fold difference between the hERG IC20 and the unbound Cmax” value (hERG channels; Dose 10 (rat CIA model)) of the same molecule?
A: Its value is 7.

Q: And the NOAEL at 7 day (in vivo)?
A: The NOAEL at 7 day was 500 mg/kg.

Q: And the “activity in the septic shock model” value (TNF release; 3 mg/kg)?
A: Its value is “active”.
